From patent US20030040485A1, “alpha/beta-adrenoceptors blockers and angiotensin converting enzyme inhibitors derived from hydroxyphenyl carboxylic acid and alcohol” (priority 2001, published 2003)

Experiments:
[1] = system: blood pressure of normotensive male Wistar rats; test: Heart rate and blood pressure in living rat (i.v., anaesthetized); assay type: in vivo; details: maximal decrease, 2 mg/kg i.v.
Source text: Normotensive Male Wistar rats (NTRs), weighing 200˜300 g were abdominal anaesthetized with pentobarbital sodium. Tracheal was cannulated to maintain normal respiration. Polyethylene tube was inserted into the left femoral vein to facilitate drug administration. A 3-way stopcock was used, with one end comnected to a syringe for drug injection, while the other end was connected to the syringe filled with physiological saline. The latter was used to prevent residual drugs in the polyethylene tube after injection, which would affect experimental accuracy.
The right femoral artery was also inserted with polyethylene, and a 3-way stopcock was used tool, where one end was connected to heparin solution to prevent embolism. The other end was comnected to a Disposable Diaphragm Dome, TA1019, and linked to a pressure transducer (Model P10EZ; Spectramed, Oxnard, Calif., USA). Through an amplifier, a recorder recorded the overall and average arterial pressure; heart rate to evaluate the effect of drug on blood pressure and heart rate. Different concentrations 0.1, 1.0, 2.0, 3.0 mg/kg of test compounds were given to the rats via femoral vein and the differences in the heart rate and blood pressure were compared. Table 2 shown maximal decrease of blood pressure affect of compounds after given 2.0 mg/kg test compounds to the rats.

[2] = molecular target: β1-adrenoceptor (left atrium) (Rattus norvegicus, UniProt P18090); test: β1-adrenoceptor antagonism, left atrium, pA2; details: Schild plot, mean ± SEM of six to eight experiments
Chain of β1-adrenoceptor (left atrium) (P18090 whole entry): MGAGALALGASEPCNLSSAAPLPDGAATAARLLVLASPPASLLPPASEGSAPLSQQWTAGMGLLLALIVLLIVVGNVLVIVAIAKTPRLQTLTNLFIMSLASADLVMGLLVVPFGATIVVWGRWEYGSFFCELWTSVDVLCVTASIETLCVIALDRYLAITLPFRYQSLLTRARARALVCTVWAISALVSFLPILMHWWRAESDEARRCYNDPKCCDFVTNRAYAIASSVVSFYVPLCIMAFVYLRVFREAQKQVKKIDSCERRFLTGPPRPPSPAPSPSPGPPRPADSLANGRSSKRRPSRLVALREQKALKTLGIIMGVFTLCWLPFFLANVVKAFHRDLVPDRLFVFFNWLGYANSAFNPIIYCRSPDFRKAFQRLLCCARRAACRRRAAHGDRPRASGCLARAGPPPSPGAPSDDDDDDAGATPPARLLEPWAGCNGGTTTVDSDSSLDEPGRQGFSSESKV

[3] = system: β2-adrenoceptor (trachea); test: β2-adrenoceptor antagonism, trachea, pA2; design: species or system rat; details: Schild plot, mean ± SEM of six to eight experiments
Method: (§1) When the spontaneously beating rate of right atria reached a certain stability, cumulative administration of L-isoproterenol from 1×10^−10˜3×10^−10 M caused the heart rate to increase continuously, and a cumulative dose-response curve was obtained. Then the L-isoproterenol was thoroughly washed off with Kreb's solution to recover the right atria's heart rate stability. After the equilibrum was reached again for at least 60 minutes, different concentrations (10^−7, 10^−6, 10^−5 M) of compounds were added. 30 minutes later, cumulative administration of L-isoproterenol from 1×10^−10˜3×10^−10 M were carried out again, and another new cumulative dose-response curve was obtained. Administration of L-isoproterenol started from concentration 1×10^−10 M, and the concentration was raised 0.5 log each time for a total of six times. Cumulative administration interval was when the previous concentration reached its greatest effect, the next concentration would be immediately given. […] In other groups of rats, after separate administration of test compounds, their pA2 values were obtained.
pA2=−Log KB Log(DRADJ−1)=n log[B]−LogKB

α1-adrenoceptor (aorta) = test: α-adrenoceptor antagonism, isolated rat aorta, pA2 vs norepinephrine; design: species or system Wistar rat; details: Schild plot, mean ± SEM of six to eight experiments
Method: Vascular α-adrenoceptor blocking activity was evaluated in the Wistar rat aorta preparation. Isolated rat aorta preparations were mounted in organ bath and suspended in Krebs solution at 37° C. […] or 75 mM KCl was added to the bath medium after a control concentration-response curve to norepinephrine had been obtained. The tissue was exposed to test compounds for 30 min before rechallenging with norepinephrine. Inhibitions were expressed as percentages of the maximum contraction obtained by the challenge of the tissues with norepinephrine. The 70 mM NaCl on 75 mM KCl solution may to replace with equimolar KCl, if necessary.
The methods published by Huang Y C. et. al. in J Cardiovasc Pharmacol.34, pp.10-20 (1999) and Drug Devel Res. 47, 77-89 (1999). Through referenced and modified method to evaluate, test compounds whether have α1-adrenergic and sertoninergic effect.
Isolated Wistar rat aorta preparations were mounted in organ bath and suspended in Krebs solution (NaCl, 118 mM, KCl, 4.8 mM; CaCl,2.5 mM; MgSO4,1.2 mM; K2PO4,1.2 Mm; […] Mm; glucose, 11 mM) at 37° C. under 1 g resting tension.
Upon balancing for 60 minutes, 10^−10-10^−4 M norepinephrine is administered directly from low concentration to high using 0.5 log unit to gradually increase until the maximum reaction is reached, and this act as the control unit. Then different concentrations of the synthetic testing compounds, 10^−7 M, 10^−6 M, or 10^−5M, are used, and upon 30 minutes of reaction, norepinephrine is used again to complete the cumulative dose. The EC50 value of blocking […] may be obtained from observation of the suppressing effects caused by different concentrations of the synthetic testing compound.
The equation is as follows: […]

[4] = system: β1-adrenoceptor (right atrium); test: β1-adrenoceptor antagonism, spontaneously beating right atrium, pA2 vs L-isoproterenol; details: for β1/β2 Ratio: antilogarithm of difference between mean pA2 of right atrium and trachea; for β1 pA2 value, Right atrium: Schild plot, mean ± SEM of six to eight experiments
Method: The spontaneously-beating right atria was clipped on both end by heart shaped clips, where one end was fixed at the bottom of 10 ml of tissue bath made of physiological saline solution, and temperature maintained at 37° C. The other end of the atria was connected to a force transducer, and isometric contractions and beating rate of the right atria were recorded by COULBOURN AT-High-Speed VideoFigure. After the samples were given 250 mg of contractions and reach equilibrium the following experiments were carried out:
as §1
pA2=−Log KB Log(DRADJ−1)=n log[B]−LogKB

[5] = molecular target: T1, angiotensin converting enzyme (ACE) (Rattus norvegicus, UniProt P47820); test: ACE inhibitory activity in rat serum (Hycor kit, [3H]-hippuryl-glycyl-glycine); assay type: biochemical; details: mean of three samples
T1 construct: from tissue; host or cells: rat serum
T1 sequence (P47820 36-1238 limits assumed): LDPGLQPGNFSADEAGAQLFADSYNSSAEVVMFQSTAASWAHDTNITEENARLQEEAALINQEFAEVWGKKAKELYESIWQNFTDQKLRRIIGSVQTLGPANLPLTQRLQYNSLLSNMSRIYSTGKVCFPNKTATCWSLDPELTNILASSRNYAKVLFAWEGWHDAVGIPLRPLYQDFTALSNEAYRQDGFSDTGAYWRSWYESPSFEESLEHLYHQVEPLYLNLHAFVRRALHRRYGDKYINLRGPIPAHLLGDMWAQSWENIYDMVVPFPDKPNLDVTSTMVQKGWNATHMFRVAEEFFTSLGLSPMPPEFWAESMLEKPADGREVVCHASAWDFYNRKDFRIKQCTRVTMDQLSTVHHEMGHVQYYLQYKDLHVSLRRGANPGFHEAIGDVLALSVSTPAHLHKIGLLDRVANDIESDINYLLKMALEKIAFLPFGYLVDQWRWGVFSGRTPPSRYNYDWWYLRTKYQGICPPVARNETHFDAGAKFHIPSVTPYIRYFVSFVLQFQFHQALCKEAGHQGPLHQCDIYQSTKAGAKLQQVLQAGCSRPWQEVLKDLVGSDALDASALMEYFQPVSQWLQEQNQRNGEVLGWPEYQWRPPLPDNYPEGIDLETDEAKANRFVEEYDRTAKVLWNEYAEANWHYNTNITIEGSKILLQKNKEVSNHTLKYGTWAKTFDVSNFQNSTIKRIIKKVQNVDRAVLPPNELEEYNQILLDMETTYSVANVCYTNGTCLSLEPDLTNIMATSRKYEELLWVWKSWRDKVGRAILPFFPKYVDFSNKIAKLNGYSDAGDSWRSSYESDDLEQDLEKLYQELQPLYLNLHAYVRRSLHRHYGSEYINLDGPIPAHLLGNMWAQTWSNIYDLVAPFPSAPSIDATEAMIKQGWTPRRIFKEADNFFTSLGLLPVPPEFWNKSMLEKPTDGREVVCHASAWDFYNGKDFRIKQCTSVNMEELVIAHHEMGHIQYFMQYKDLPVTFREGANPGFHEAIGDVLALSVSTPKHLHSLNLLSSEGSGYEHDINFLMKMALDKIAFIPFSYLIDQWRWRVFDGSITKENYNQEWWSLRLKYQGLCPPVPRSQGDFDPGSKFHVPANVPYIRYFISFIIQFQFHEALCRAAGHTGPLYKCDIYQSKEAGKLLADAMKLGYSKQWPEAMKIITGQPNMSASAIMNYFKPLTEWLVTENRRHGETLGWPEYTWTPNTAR
Method: ACE value in serum was determined by Hycor kit, rat serum were cultured in 37° C. of [^3H]-hippuryl-glycyl-glycine for 60 minutes. While [^3H]-hippuryl-glycyl-glycine contains three peptide. [^3H] hippuric acid was obtained when extracted of culture solution with ethyl acetate, the content be determined by spectrophotometer. The content in serum sample was as the control group after it was added with 10^−8M, 10^−7M, 10^−6M compounds, then dissolved in PBS.

[6] = molecular target: T2, angiotensin converting enzyme (ACE) (Rattus norvegicus, UniProt P47820); test: ACE activity value on tissue (rat lung membrane, Hip-His-Leu, fluorometric); assay type: biochemical; details: mean of three samples
T2 construct: Centrifuged 250-300 mg lung tissue; from tissue; host or cells: rat lung membrane fraction
T2 sequence (P47820 36-1313): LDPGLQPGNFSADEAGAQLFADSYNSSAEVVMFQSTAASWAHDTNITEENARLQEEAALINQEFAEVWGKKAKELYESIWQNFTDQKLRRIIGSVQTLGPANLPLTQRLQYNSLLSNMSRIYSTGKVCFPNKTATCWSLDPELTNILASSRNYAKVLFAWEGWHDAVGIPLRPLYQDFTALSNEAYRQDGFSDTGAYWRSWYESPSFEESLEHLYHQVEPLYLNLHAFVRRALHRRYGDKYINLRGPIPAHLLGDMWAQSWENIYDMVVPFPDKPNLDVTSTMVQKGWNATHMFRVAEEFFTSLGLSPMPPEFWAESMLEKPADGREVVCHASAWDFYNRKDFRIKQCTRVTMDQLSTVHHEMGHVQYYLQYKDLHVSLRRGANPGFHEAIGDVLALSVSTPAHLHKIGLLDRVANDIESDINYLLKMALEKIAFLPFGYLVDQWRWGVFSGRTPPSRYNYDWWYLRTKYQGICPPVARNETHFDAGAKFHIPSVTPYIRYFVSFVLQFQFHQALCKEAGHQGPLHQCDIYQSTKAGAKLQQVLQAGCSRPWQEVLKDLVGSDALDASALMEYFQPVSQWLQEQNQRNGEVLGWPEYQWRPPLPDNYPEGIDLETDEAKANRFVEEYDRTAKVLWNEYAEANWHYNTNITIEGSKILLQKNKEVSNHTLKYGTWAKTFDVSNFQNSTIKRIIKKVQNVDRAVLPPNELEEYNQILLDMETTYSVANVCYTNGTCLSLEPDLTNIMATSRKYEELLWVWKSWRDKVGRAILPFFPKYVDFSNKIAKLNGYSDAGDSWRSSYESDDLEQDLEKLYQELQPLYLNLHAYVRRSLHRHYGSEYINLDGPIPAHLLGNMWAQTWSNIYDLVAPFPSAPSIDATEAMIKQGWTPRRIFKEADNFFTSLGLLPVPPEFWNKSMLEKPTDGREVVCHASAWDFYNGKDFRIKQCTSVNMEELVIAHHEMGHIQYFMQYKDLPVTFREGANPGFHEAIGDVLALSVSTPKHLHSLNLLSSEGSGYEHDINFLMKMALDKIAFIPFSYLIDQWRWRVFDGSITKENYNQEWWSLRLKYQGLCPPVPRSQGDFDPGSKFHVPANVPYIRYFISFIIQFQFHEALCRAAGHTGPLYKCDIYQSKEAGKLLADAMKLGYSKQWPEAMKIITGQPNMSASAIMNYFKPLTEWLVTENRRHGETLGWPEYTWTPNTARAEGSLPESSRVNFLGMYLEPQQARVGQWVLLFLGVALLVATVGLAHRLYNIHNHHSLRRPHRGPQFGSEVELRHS
Method: Centrifuged 250-300 mg lung tissue, 3 ml extracted liquid (10 mmol/L HEPES, 125 mmol/L NaCl, pH7.4) under 12000 g for 20 minutes at 4° C. by Teflon-glass homogenizer, the cell membrane was obtained. The 3 ml homogenized liquid was added into twice, before and after centrifuged. Then the Lowry's method was adopted to determine the protein content in the membrane. Mixing 15 minute of liquid and 30 mmol/L Hip-His-Leu solution at 37° C. Fluorometric was used to determine the Hippurate content. test compounds (10^−8M, 10^−7M, 10^−6M) dissolved in PBS normal saline and used as control group. Then ACE activity inhibition rate was determined.

Molecule	Decrease of blood pressure [1]	β1 pA2 value, Left atrium [2]	β2 pA2 value, Trachea [3]	α1 pA2 value, Aorta (α1-adrenoceptor (aorta))	β1/β2 Ratio [4]	β1 pA2 value, Right atrium [4]	inhibition at 1 µM ([5]; 10^−6M)	inhibition at 0.1 µM ([5]; 10^−7M)	inhibition at 0.01 µM ([5]; 10^−8M)	inhibition at 1 µM ([6]; 10^−6M, read-out: Inhibitory activity of ACE, In Rat lung)	inhibition at 0.1 µM ([6]; 10^−7M, read-out: Inhibitory activity of ACE, In Rat lung)	Inhibitory activity of ACE, In Rat lung ([6]; 10^−8M)	Kb [2]
COc1cc(CO)ccc1OCC(O)CNC(C)(C)C (centres unmarked) [compound 2, Vanynolol]	72 ± 2.5 mmHg	6.84	6.61	7.23	2.3	6.67							
CCOC(=O)[C@H](CCc1ccccc1)N[C@@H](C)C(=O)N1CCC[C@H]1C(=O)O [Enalapril, reference compound]							99%	94%	54%	98%	93%	51%	
CC(CCc1ccccc1)NCC(O)c1ccc(O)c(C(N)=O)c1 (centres unmarked) [labetalol, reference compound]			7.54	6.87	2.3	7.91							28.8 nM
CC(C)NCC(O)COc1ccc(CC(N)=O)cc1 (centres unmarked) [atenolol, reference compound]			5.81	<5.00		7.34							
COc1ccccc1OCCNCC(O)COc1ccc(CO)cc1OC (centres unmarked) [compound 4, Vanydilol]	83 ± 9.1 mmHg	6.76	6.69	7.89	1.6	6.72							
CCOC(=O)CCc1ccc(OCC(O)CNCCOc2ccccc2OC)cc1 (centres unmarked) [compound 3, Propiodilol]	56 ± 3.8 mmHg	6.78	6.71		1.9	6.74							
1-[(4 -Propenoic acid ethyl ester)phenoxy-3-amino]-propanol [compound 1]	60 ± 4.7 mmHg	6.92	6.43		2.1	6.83							
CC(C)NCC(O)COc1cccc2ccccc12 (centres unmarked) [propranolol, reference compound]			8.07	<5.00									
